Results: PubChem BioAssay AID248 (DTP/NCI, 2004)
“And” between values parts separate entries of the source, which are not always exact repeats. Identical values can stand only once. Toxic doses and inconclusive results are not listed.

Tested on: L1210 leukemia ip in BDF1 mice, survival T/C
Assay: NCI In Vivo Anticancer Drug Screen. Data for tumor model L1210 Leukemia (intraperitoneal) in B6D2F1 (BDF1) mice
Conditions: higher = longer survival
Procedure, shortened: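 Transplantable tumor model; survival measured in treated vs vehicle control mice. Value = treated/control.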

[1] = endpoint: mean survival time, dose: 100.0 mg/kg/injection, schedule: Q01DX009 (ip), vehicle: Klucel (hydroxypropylcellulose) (HPC)
[2] = endpoint: mean survival time, dose: 100.0 mg/kg/injection, schedule: Q04DX003 (ip), vehicle: Klucel (hydroxypropylcellulose) (HPC)
[3] = endpoint: mean survival time, dose: 200.0 mg/kg/injection, schedule: Q01DX009 (ip), vehicle: Klucel (hydroxypropylcellulose) (HPC)
[4] = endpoint: mean survival time, dose: 200.0 mg/kg/injection, schedule: Q04DX003 (ip), vehicle: Klucel (hydroxypropylcellulose) (HPC)
[5] = endpoint: mean survival time, dose: 400.0 mg/kg/injection, schedule: Q01DX009 (ip), vehicle: Klucel (hydroxypropylcellulose) (HPC)
[6] = endpoint: mean survival time, dose: 400.0 mg/kg/injection, schedule: Q04DX003 (ip), vehicle: Klucel (hydroxypropylcellulose) (HPC)

COc1cc([C@@H]2c3cc4c(cc3[C@@H](OC3OC5CO[C@@H](c6cccs6)OC5C(O)C3O)[C@H]3COC(=O)[C@H]23)OCO4)cc(OC)c1O (some centres not stated)
T/C (endpoint: mean survival time, dose: 0.5 mg/kg/injection, schedule: Q03HX024 (ip), vehicle: other): 109 % of control | T/C (endpoint: mean survival time, dose: 1.0 mg/kg/injection, schedule: Q01DX009 (ip), vehicle: other): 111 % of control | T/C (endpoint: mean survival time, dose: 1.0 mg/kg/injection, schedule: Q03HX008 (ip), vehicle: other): 122 % of control | T/C (endpoint: mean survival time, dose: 1.0 mg/kg/injection, schedule: Q03HX016 (ip), vehicle: other): 111 % of control | T/C (endpoint: mean survival time, dose: 1.0 mg/kg/injection, schedule: Q03HX024 (ip), vehicle: other): 118 % of control | T/C (endpoint: mean survival time, dose: 2.0 mg/kg/injection, schedule: Q01DX009 (oral), vehicle: other): 104 % of control | T/C (endpoint: mean survival time, dose: 2.0 mg/kg/injection, schedule: Q03HX008 (oral), vehicle: other): 90 % of control | T/C (endpoint: mean survival time, dose: 2.0 mg/kg/injection, schedule: Q04DX003 (ip), vehicle: water): 194 % of control | T/C (endpoint: mean survival time, dose: 2.0 mg/kg/injection, schedule: Q08DX002 (ip), vehicle: water): 156 % of control | T/C (endpoint: mean survival time, dose: 4.0 mg/kg/injection, schedule: Q01DX001 (ip), vehicle: water): 157 % of control | T/C (endpoint: mean survival time, dose: 4.0 mg/kg/injection, schedule: Q01DX009 (oral), vehicle: other): 101 % of control | T/C (endpoint: mean survival time, dose: 4.0 mg/kg/injection, schedule: Q03HX008 (oral), vehicle: other): 98 % of control | T/C (endpoint: mean survival time, dose: 4.0 mg/kg/injection, schedule: Q04DX003 (ip), vehicle: other): 110 % of control | T/C (endpoint: mean survival time, dose: 4.0 mg/kg/injection, schedule: Q04DX003 (ip), vehicle: water): 241 % of control | T/C (endpoint: mean survival time, dose: 4.0 mg/kg/injection, schedule: Q08DX002 (ip), vehicle: water): 172 % of control | T/C (endpoint: mean survival time, dose: 8.0 mg/kg/injection, schedule: Q01DX001 (ip), vehicle: water): 162 % of control | T/C (endpoint: mean survival time, dose: 8.0 mg/kg/injection, schedule: Q01DX009 (oral), vehicle: other): 105 % of control | T/C (endpoint: mean survival time, dose: 8.0 mg/kg/injection, schedule: Q03HX008 (oral), vehicle: other): 100 % of control | T/C (endpoint: mean survival time, dose: 8.0 mg/kg/injection, schedule: Q03HX016 (ip), vehicle: other): 186 % of control | T/C (endpoint: mean survival time, dose: 8.0 mg/kg/injection, schedule: Q03HX016 (oral), vehicle: other): 95 % of control | T/C (endpoint: mean survival time, dose: 8.0 mg/kg/injection, schedule: Q03HX024 (oral), vehicle: other): 98 % of control | T/C (endpoint: mean survival time, dose: 8.0 mg/kg/injection, schedule: Q04DX003 (ip), vehicle: water): 426 % of control | T/C (endpoint: mean survival time, dose: 8.0 mg/kg/injection, schedule: Q04DX003 (oral), vehicle: other): 97 % of control | T/C (endpoint: mean survival time, dose: 8.0 mg/kg/injection, schedule: Q08DX002 (ip), vehicle: other): 109 % of control | T/C (endpoint: mean survival time, dose: 8.0 mg/kg/injection, schedule: Q08DX002 (ip), vehicle: water): 300 % of control | T/C (endpoint: mean survival time, dose: 16.0 mg/kg/injection, schedule: Q01DX001 (ip), vehicle: water): 439 % of control | T/C (endpoint: mean survival time, dose: 16.0 mg/kg/injection, schedule: Q01DX001 (oral), vehicle: other): 111 % of control | T/C (endpoint: mean survival time, dose: 16.0 mg/kg/injection, schedule: Q01DX009 (oral), vehicle: other): 103 % of control | T/C (endpoint: mean survival time, dose: 16.0 mg/kg/injection, schedule: Q03HX008 (oral), vehicle: other): 95 % of control | T/C (endpoint: mean survival time, dose: 16.0 mg/kg/injection, schedule: Q03HX016 (oral), vehicle: other): 94 % of control and 95 % of control | T/C (endpoint: mean survival time, dose: 16.0 mg/kg/injection, schedule: Q03HX024 (oral), vehicle: other): 93 % of control | T/C (endpoint: mean survival time, dose: 16.0 mg/kg/injection, schedule: Q04DX003 (ip), vehicle: water): 172 % of control | T/C (endpoint: mean survival time, dose: 16.0 mg/kg/injection, schedule: Q04DX003 (oral), vehicle: other): 106 % of control | T/C (endpoint: mean survival time, dose: 16.0 mg/kg/injection, schedule: Q08DX002 (ip), vehicle: other): 122 % of control | T/C (endpoint: mean survival time, dose: 16.0 mg/kg/injection, schedule: Q08DX002 (ip), vehicle: water): 423 % of control | T/C (endpoint: mean survival time, dose: 16.0 mg/kg/injection, schedule: Q08DX002 (oral), vehicle: other): 102 % of control | T/C (endpoint: mean survival time, dose: 32.0 mg/kg/injection, schedule: Q01DX001 (ip), vehicle: water): 242 % of control | T/C (endpoint: mean survival time, dose: 32.0 mg/kg/injection, schedule: Q01DX001 (oral), vehicle: other): 161 % of control | T/C (endpoint: mean survival time, dose: 32.0 mg/kg/injection, schedule: Q03HX016 (oral), vehicle: other): 98 % of control | T/C (endpoint: mean survival time, dose: 32.0 mg/kg/injection, schedule: Q03HX024 (oral), vehicle: other): 94 % of control | T/C (endpoint: mean survival time, dose: 32.0 mg/kg/injection, schedule: Q04DX003 (ip), vehicle: water): 103 % of control | T/C (endpoint: mean survival time, dose: 32.0 mg/kg/injection, schedule: Q04DX003 (oral), vehicle: other): 100 % of control | T/C (endpoint: mean survival time, dose: 32.0 mg/kg/injection, schedule: Q08DX002 (ip), vehicle: water): 163 % of control | T/C (endpoint: mean survival time, dose: 32.0 mg/kg/injection, schedule: Q08DX002 (oral), vehicle: other): 100 % of control | T/C (endpoint: mean survival time, dose: 64.0 mg/kg/injection, schedule: Q01DX001 (ip), vehicle: other): 188 % of control | T/C (endpoint: mean survival time, dose: 64.0 mg/kg/injection, schedule: Q01DX001 (oral), vehicle: other): 98 % of control | T/C (endpoint: mean survival time, dose: 64.0 mg/kg/injection, schedule: Q03HX024 (oral), vehicle: other): 92 % of control | T/C (endpoint: mean survival time, dose: 64.0 mg/kg/injection, schedule: Q04DX003 (oral), vehicle: other): 97 % of control | T/C (endpoint: mean survival time, dose: 64.0 mg/kg/injection, schedule: Q08DX002 (ip), vehicle: other): 190 % of control | T/C (endpoint: mean survival time, dose: 64.0 mg/kg/injection, schedule: Q08DX002 (oral), vehicle: other): 96 % of control | T/C (endpoint: mean survival time, dose: 128.0 mg/kg/injection, schedule: Q01DX001 (oral), vehicle: other): 101 % of control | T/C (endpoint: mean survival time, dose: 128.0 mg/kg/injection, schedule: Q03HX024 (oral), vehicle: other): 94 % of control | T/C (endpoint: mean survival time, dose: 128.0 mg/kg/injection, schedule: Q04DX003 (oral), vehicle: other): 96 % of control | T/C (endpoint: mean survival time, dose: 128.0 mg/kg/injection, schedule: Q08DX002 (oral), vehicle: other): 98 % of control | T/C (endpoint: mean survival time, dose: 600.0 mg/kg/injection, schedule: Q01DX009 (ip), vehicle: steriod suspending solution): 224 % of control | T/C (endpoint: mean survival time, dose: 800.0 mg/kg/injection, schedule: Q01DX009 (ip), vehicle: steriod suspending solution): 246 % of control | T/C (endpoint: mean survival time, dose: 1000.0 mg/kg/injection, schedule: Q01DX009 (ip), vehicle: steriod suspending solution): 169 % of control | T/C (endpoint: median survival time, dose: 1.0 mg/kg/injection, schedule: Q01DX009 (ip), vehicle: saline): 194 % of control | T/C (endpoint: median survival time, dose: 2.0 mg/kg/injection, schedule: Q01DX009 (ip), vehicle: saline): 116 % of control | T/C (endpoint: median survival time, dose: 4.0 mg/kg/injection, schedule: Q01DX009 (ip), vehicle: saline): 88 % of control

CCCCCCCCCCCCOc1ccccc1OC
T/C (endpoint: mean survival time, dose: 100.0 mg/kg/injection, schedule: Q01DX001 (ip), vehicle: Klucel (hydroxypropylcellulose) (HPC)): 89 % of control | T/C (endpoint: mean survival time, dose: 200.0 mg/kg/injection, schedule: Q01DX001 (ip), vehicle: Klucel (hydroxypropylcellulose) (HPC)): 90 % of control | T/C (endpoint: mean survival time, dose: 400.0 mg/kg/injection, schedule: Q01DX001 (ip), vehicle: Klucel (hydroxypropylcellulose) (HPC)): 95 % of control

CCCCCCCCCCCCSCCNC(=O)CCl
T/C [1]: 87 % of control | T/C [2]: 95 % of control | T/C [3]: 92 % of control | T/C [4]: 92 % of control | T/C [5]: 88 % of control | T/C [6]: 92 % of control

O=[N+]([O-])c1cccc(C=Nc2ccc(Nc3ccccc3)cc2)c1
T/C (endpoint: mean survival time, dose: 100.0 mg/kg/injection, schedule: Q04DX002 (ip), vehicle: Klucel (hydroxypropylcellulose) (HPC)): 114 % of control | T/C (endpoint: mean survival time, dose: 200.0 mg/kg/injection, schedule: Q04DX002 (ip), vehicle: Klucel (hydroxypropylcellulose) (HPC)): 100 % of control | T/C (endpoint: mean survival time, dose: 400.0 mg/kg/injection, schedule: Q04DX002 (ip), vehicle: Klucel (hydroxypropylcellulose) (HPC)): 111 % of control

O=C(Nc1ccc2ccccc2c1)c1ccccc1Cl
T/C [1]: 93 % of control | T/C [3]: 101 % of control | T/C [5]: 101 % of control

CCOC(=O)/C(Cc1cc[n+]([O-])c2ccccc12)=N/O
T/C [1]: 91 % of control | T/C [2]: 92 % of control | T/C [3]: 97 % of control | T/C [4]: 90 % of control | T/C [5]: 100 % of control | T/C [6]: 100 % of control

NN(C(=O)c1ccccc1)c1ccccc1
T/C (endpoint: mean survival time, dose: 75.0 mg/kg/injection, schedule: Q01DX001 (ip), vehicle: carboxymethylcellulose (CMC)): 93 % of control | T/C (endpoint: mean survival time, dose: 150.0 mg/kg/injection, schedule: Q01DX001 (ip), vehicle: carboxymethylcellulose (CMC)): 98 % of control | T/C (endpoint: mean survival time, dose: 300.0 mg/kg/injection, schedule: Q01DX001 (ip), vehicle: carboxymethylcellulose (CMC)): 95 % of control

Cn1c2c(c(=O)n(C)c1=O)C(C=O)C(=O)N2 (configuration not stated)
T/C (endpoint: mean survival time, dose: 100.0 mg/kg/injection, schedule: Q04DX002 (ip), vehicle: saline): 101 % of control | T/C (endpoint: mean survival time, dose: 200.0 mg/kg/injection, schedule: Q04DX002 (ip), vehicle: saline): 87 % of control | T/C (endpoint: mean survival time, dose: 400.0 mg/kg/injection, schedule: Q04DX002 (ip), vehicle: saline): 90 % of control
